Reference: US9062018B2, “Crytalline form of 13-[(N-tert-butoxycarbonyl)-2′-O-hexanoyl-3-phenylisoserinyl]-10-deacetylbaccatin III” (Indena S.p.A, priority 2010, dated 2015)

Legend:
[1] = Stability data at 25±2° C. and 60±5% relative humidity of amorphous and Form A of compound (1); assay type: physicochemical; conditions: for HPLC assay (%) of compound (1) with reference to the anhydrous and solvent free basis / IR identification / Potential impurity-HPLC (area %): 10-dehydro compound (1): 25±2° C.; for HPLC assay (%) of compound (1) with reference to the anhydrous and solvent free basis / IR identification / Potential impurity-HPLC (area %): 10-dehydro compound (1) / Specific optical rotation (°) (c = 1 ethanol, at 20° C.): 60±5% relative humidity; for Specific optical rotation (°) (c = 1 ethanol, at 20° C.): storage 25±2° C.
Description: Stability data at 25±2° C. and 60±5% relative humidity of amorphous and Form A of compound (1). The packaging was the same for both solid forms (Amber glass vial+polyethylene bag+vacuum sealed PET/Aluminum/PE multilayer bag).

[2] = ICH stability studies (chemical stability of the solid form); assay type: physicochemical; conditions: mainly an impurity stemming from oxidation of the 10-position of the baccatin core
Description: Thus it is desirable to find a crystalline form of compound (1) which is chemically and thermodynamically stable. A method for preparing such solid form of compound (1) continually and constantly is also a prerequisite for the development of a robust manufacturing process.

[3] = T = 0, against the reference FTIR figure of the form
[4] = T = 0, amber glass vial + polyethylene bag + vacuum sealed PET/Aluminum/PE multilayer bag

Row | Structure (SMILES) | HPLC assay (%) of compound (1) with reference to the anhydrous and solvent free basis ([1]; 3 months) [%] | IR identification ([1]; 3 months) | Potential impurity-HPLC (area %): 10-dehydro compound (1) ([1]; 3 months) [% area %] | Specific optical rotation (°) (c = 1 ethanol, at 20° C.) ([1]; 3 months) | HPLC assay (%) of compound (1) with reference to the anhydrous and solvent free basis ([1]; 6 months) [%] | IR identification ([1]; 6 months) | Potential impurity-HPLC (area %): 10-dehydro compound (1) ([1]; 6 months) [% area %] | Specific optical rotation (°) (c = 1 ethanol, at 20° C.) ([1]; 6 months) | Potential impurity-HPLC (area %): 10-dehydro compound (1) ([1]; T = 0) [% area %] | IR identification [1, 3] | HPLC assay (%) of compound (1) with reference to the anhydrous and solvent free basis [1, 4] [%] | Specific optical rotation (°) (c = 1 ethanol, at 20° C.) ([1]; T = 0) | Chemical stability during ICH stability studies [2] | Oxidation of the 10-position of the baccatin core ([1]; solid form on storage)
1 | CCCCCC(=O)OC(C(=O)OC1CC2(O)C(OC(=O)c3ccccc3)C3C4(OC(C)=O)COC4CC(O)C3(C)C(=O)C(O)C(=C1C)C2(C)C)C(NC(=O)OC(C)(C)C)c1ccccc1 (centres unmarked) [Amourphous Form of compound (1), 13-[(N-tert-butoxycarbonyl)-2′-O-hexanoyl-3-phenylisoserinyl]-10-deacetylbaccatin III] | 99.0 | Complies | 0.36 | −46.3 | 98.9 | Complie | 0.53 | −46.0 | 0.29 | Complies with | 99.7 | −46.0 | problems of chemical stability | –
2 | CCCCCC(=O)OC(C(=O)OC1CC2(O)C(OC(=O)c3ccccc3)C3C4(OC(C)=O)COC4CC(O)C3(C)C(=O)C(O)C(=C1C)C2(C)C)C(NC(=O)OC(C)(C)C)c1ccccc1 (centres unmarked) [Form A of compound (1), 13-[(N-tert-butoxycarbonyl)-2′-O-hexanoyl-3-phenylisoserinyl]-10-deacetylbaccatin III] | 99.0 | Complies | 0.29 | −46.3 | 99.1 | Complies | 0.29 | −46.3 | 0.29 | Complies with | 99.0 | −46.2 | – | prevented
